The supplement of paper PMC10627819

Columns and labels:
Assay in all cases: Bliss interaction score (quartile over a dose matrix) (fitness difference); higher = more antagonism (negative = synergy)
[1] = tested on: S. pneumoniae D39V
In short: (§1)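 The Bliss score is observed fitness minus expected fitness, where the expected value is the product of single-drug fitness values inferred from combination data. Fitness is OD595 at entry into stationary phase normalised to the plate's robust no-drug mean and capped at 1. Scores are reported as quartiles spanning technical, biological and donor/recipient replicates.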

[2] = tested on: B. subtilis 168
In short: as §1

[3] = tested on: S. aureus Newman
In short: as §1

[4] = tested on: S. aureus DSM 20231
In short: as §1
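Further: first quartile when negative (synergy) and third quartile when positive (antagonism).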

Row | Compound | Bliss interaction score [1] | Bliss interaction score [2] | Bliss interaction score [3] | Bliss interaction score [4]
1 | N#CC(C#N)=NNc1cccc(Cl)c1 [CCCP] + CO/N=C(\C(=O)N[C@@H]1C(=O)N2C(C(=O)O)=C(COC(C)=O)CS[C@H]12)c1csc(N)n1 [Cefotaxime] | -0.112 | 0.139 | 0.0493 | 0.0268
2 | C[C@H]1c2cccc(O)c2C(=O)C2=C(O)[C@]3(O)C(=O)C(C(N)=O)=C(O)[C@@H](N(C)C)[C@@H]3[C@@H](O)[C@@H]21 [Doxycycline] + Oc1cc(Cl)ccc1Oc1ccc(Cl)cc1Cl [Triclosan] | 0.0668 | -0.0554 | 0.0244 | -0.0352
3 | CC1(C)S[C@@H]2[C@H](NC(=O)Cc3ccccc3)C(=O)N2[C@H]1C(=O)O [PenicillinG] + Cn1nnc(-c2ccc(-c3ccc(N4C[C@H](CO)OC4=O)cc3F)cn2)n1 [Tedizolid] | 0.106 | 0.0625 | -0.0888 | 0.057
4 | CN(C)[C@@H]1C(O)=C(C(N)=O)C(=O)[C@@]2(O)C(O)=C3C(=O)c4c(O)ccc(Cl)c4[C@@](C)(O)[C@H]3C[C@@H]12 [Clortetracycline] + COc1c(N2C[C@@H]3CCCN[C@@H]3C2)c(F)cc2c(=O)c(C(=O)O)cn(C3CC3)c12 [Moxifloxacin] | 0.0374 | -0.0182 | 0.101 | 0.119
5 | CN(C)[C@@H]1C(O)=C(C(N)=O)C(=O)[C@@]2(O)C(O)=C3C(=O)c4c(O)ccc(Cl)c4[C@@](C)(O)[C@H]3C[C@@H]12 [Clortetracycline] + COc1cc(Cc2cnc(N)nc2N)cc(OC)c1OC [Trimethoprim] | -0.0376 | 0.135 | 0.102 | 0.0736
6 | CC(=O)Oc1ccccc1C(=O)O [Acetylsalicylicacid] + CN(N=O)C(=O)N[C@@H](C=O)[C@@H](O)[C@H](O)[C@H](O)CO [Streptozotocin] | -0.0923 | 0.0788 | 0.0716 | -0.0369
7 | CC(=O)Oc1ccccc1C(=O)O [Acetylsalicylicacid] + CN[C@H](CC(C)C)C(=O)N[C@H]1C(=O)N[C@@H](CC(N)=O)C(=O)N[C@H]2C(=O)N[C@H]3C(=O)N[C@H](C(=O)N[C@H](C(=O)O)c4cc(O)cc(O)c4-c4cc3ccc4O)[C@H](O)c3ccc(c(Cl)c3)Oc3cc2cc(c3O[C@@H]2O[C@H](CO)[C@@H](O)[C@H](O)[C@H]2O[C@H]2C[C@](C)(N)[C@H](O)[C@H](C)O2)Oc2ccc(cc2Cl)[C@H]1O [Vancomycin] | 0.114 | -0.0629 | 0.0599 | -0.0542
8 | CC(=O)Oc1ccccc1C(=O)O [Acetylsalicylicacid] + CCN(CC)CCOC(=O)c1ccc(N)cc1 [Procaine] | 0.0662 | 0.0531 | -0.0687 | 0.0998
9 | CO/N=C(\C(=O)N[C@@H]1C(=O)N2C(C(=O)O)=C(COC(C)=O)CS[C@H]12)c1csc(N)n1 [Cefotaxime] + CC[C@H]1OC(=O)[C@H](C)C(=O)[C@H](C)[C@@H](O[C@@H]2O[C@H](C)C[C@H](N(C)C)[C@H]2O)[C@](C)(OC)C[C@@H](C)C(=O)[C@H](C)[C@H]2N(CCCCn3cnc(-c4cccnc4)c3)C(=O)O[C@]12C [Telithromycin] | 0.0507 | 0.0749 | -0.033 | 0.0754
10 | CC1(C)S[C@@H]2[C@H](NC(=O)Cc3ccccc3)C(=O)N2[C@H]1C(=O)O [PenicillinG] + COc1cc(Cc2cnc(N)nc2N)cc(OC)c1OC [Trimethoprim] | 0.101 | -0.131 | -0.0822 | -0.0299
11 | CN(C)[C@@H]1C(O)=C(C(N)=O)C(=O)[C@@]2(O)C(O)=C3C(=O)c4c(O)ccc(Cl)c4[C@@](C)(O)[C@H]3C[C@@H]12 [Clortetracycline] + CN[C@H](CC(C)C)C(=O)N[C@H]1C(=O)N[C@@H](CC(N)=O)C(=O)N[C@H]2C(=O)N[C@H]3C(=O)N[C@H](C(=O)N[C@H](C(=O)O)c4cc(O)cc(O)c4-c4cc3ccc4O)[C@H](O[C@H]3C[C@](C)(N)[C@@H](O)[C@H](C)O3)c3ccc(c(Cl)c3)Oc3cc2cc(c3O[C@@H]2O[C@H](CO)[C@@H](O)[C@H](O)[C@H]2O[C@H]2C[C@](C)(NCc3ccc(-c4ccc(Cl)cc4)cc3)[C@@H](O)[C@H](C)O2)Oc2ccc(cc2Cl)[C@H]1O [Oritavancin] | 0.073 | -0.0243 | 0.0708 | -0.0292
12 | N#CC(C#N)=NNc1cccc(Cl)c1 [CCCP] + N[C@@H]1CONC1=O [CycloserineD] | 0.102 | 0.0617 | -0.0487 | -0.0883
13 | CO/N=C(\C(=O)N[C@@H]1C(=O)N2C(C(=O)O)=C(COC(N)=O)CS[C@H]12)c1ccco1 [Cefuroxime] + CC(=O)O[C@H]1C[C@@]2(C)[C@@H](C[C@@H](O)[C@H]3[C@@]4(C)CC[C@@H](O)[C@@H](C)[C@@H]4CC[C@@]32C)/C1=C(\CCC=C(C)C)C(=O)O [Fusidic acid] | 0.0348 | 0.137 | 0.104 | -0.281
14 | N#CC(C#N)=NNc1cccc(Cl)c1 [CCCP] + CC1=C(C(=O)O)N2C(=O)[C@@H](NC(=O)[C@H](N)c3ccccc3)[C@H]2SC1 [Cephalexin] | -0.0759 | 0.0431 | -0.0498 | 0.0708
15 | CO/N=C(\C(=O)N[C@@H]1C(=O)N2C(C(=O)O)=C(COC(N)=O)CS[C@H]12)c1ccco1 [Cefuroxime] + Clc1ccc(COC(Cn2ccnc2)c2ccc(Cl)cc2Cl)c(Cl)c1 [Miconazole] | 0.0717 | 0.0653 | 0.025 | 0.112
16 | CC(=O)Oc1ccccc1C(=O)O [Acetylsalicylicacid] + C[n+]1ccc(-c2cc[n+](C)cc2)cc1 [Paraquat] | -0.0664 | 0.067 | 0.0558 | 0.067
17 | CN(C)[C@@H]1C(O)=C(C(N)=O)C(=O)[C@@]2(O)C(O)=C3C(=O)c4c(O)ccc(Cl)c4[C@@](C)(O)[C@H]3C[C@@H]12 [Clortetracycline] + C[C@@H](O)[C@H]1C(=O)N2C(C(=O)O)=C(SCCNC=N)C[C@H]12 [Imipenem] | -0.0487 | 0.194 | 0.0268 | 0.039
18 | C[C@@H]1O[C@@H]1P(=O)(O)O [Fosfomycin] + CC1(C)S[C@@H]2[C@H](NC(=O)Cc3ccccc3)C(=O)N2[C@H]1C(=O)O [PenicillinG] | -0.0713 | -0.0401 | 0.0465 | -0.136
